Values of other authors, collected in patent US8372933B2, “Hyperbranched polymers based on cyclodextrins and poly (amidoamines) for the controlled release of insoluble drugs” (L'Urederra Fundacion Para el Desarrollo Tecnologico y Social, priority 2007, dated 2013).

Conditions: oral

bioavailability: 15-30%
Structure (SMILES): Nc1nc2c(ncn2COCCO)c(=O)[nH]1 [Acyclovir]
